Data taken from patent US6165770A, “Alkaline stable amylase from Thermoalcalibacter” (Novo Nordisk A/S, priority 1996, dated 2000).
Where a name gives a salt, the structure may show the parent alone.

Target: T1, α-amylase from Thermoalcalibacter bogoriae (Anaerobranca gottschalkii, UniProt Q5I942)
T1 sequence (Q5I942 24-532): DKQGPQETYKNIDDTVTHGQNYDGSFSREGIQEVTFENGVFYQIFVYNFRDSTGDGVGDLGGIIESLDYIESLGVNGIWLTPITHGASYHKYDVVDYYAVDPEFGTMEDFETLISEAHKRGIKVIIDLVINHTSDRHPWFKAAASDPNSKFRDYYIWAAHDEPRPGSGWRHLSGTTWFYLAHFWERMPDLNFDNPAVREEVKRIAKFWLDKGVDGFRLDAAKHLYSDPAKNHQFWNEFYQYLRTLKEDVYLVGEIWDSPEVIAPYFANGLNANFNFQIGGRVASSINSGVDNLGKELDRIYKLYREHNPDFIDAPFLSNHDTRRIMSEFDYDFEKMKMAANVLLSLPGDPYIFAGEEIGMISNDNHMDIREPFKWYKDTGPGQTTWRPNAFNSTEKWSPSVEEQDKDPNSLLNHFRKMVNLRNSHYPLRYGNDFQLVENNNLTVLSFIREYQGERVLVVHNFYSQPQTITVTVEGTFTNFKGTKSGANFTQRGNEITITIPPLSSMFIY
Test: Effect of metal ions and chemical reagents on amylase activity
Assay type: biochemical
Conditions: pH 8
Experimental: The effect of metal ions on the activity of the amylase of the present invention was examined by pre-incubating the enzyme together with metal ions for 30 min. at 65° C., pH 8.0 in a substrate solution containing (wt/vol) soluble starch (0.5%). Subsequently an enzyme assay was performed at 65° C. for 30 min in order to determine the residual activity of the amylase. For further details see working example herein (vide infra) and FIG. 4.
The amylase activity was measured at pH 8.0 -higher pH would interfere with metal ion solutions- and 65° C. in presence of various metal ions at 1 mM, 2 mM and 5 mM concentration and in presence of some chemical reagents (FIG. 4).

Row | Structure (SMILES) | effect of metal ions on amylase activity
1 | O=C(O)CN(CCN(CC(=O)O)CC(=O)O)CC(=O)O [EDTA] | not or only slightly inhibited

Same assay, conditions: pH 8.0, 65° C., 1 mM, 2 mM and 5 mM

Row | Structure (SMILES) | effect of metal ions on amylase activity
2 | [Ni+2] [Ni^2+] | Moderate inhibition
3 | [Cr+6] [Cr^6+] | Strong inhibition
4 | [Co+2] [Co^2+] | not or only slightly inhibited
5 | [Fe+2] [Fe^2+] | Strong inhibition
6 | [Ca+2] [Ca^2+] | not or only slightly inhibited
7 | [Cu+2] [Cu^2+] | Strong inhibition

Now from value to molecule:

Row | effect of metal ions on amylase activity | Structure (SMILES)
8 | Moderate inhibition | [Mg+2] [Mg^2+]
9 | Strong inhibition | [V+4] [V^4+]
10 | moderate stimulation | [Mn+2] [Mn^2+]
11 | Moderate inhibition | [Zn+2] [Zn^2+]

Same assay, conditions: pH 8.0, 65° C., 5 mM

Row | Structure (SMILES) | effect of chemical reagents on amylase activity at 5 mM
12 | NCCc1ccc(S(=O)(=O)F)cc1 [Pefabloc SC] | did not interfer
13 | CCCCCCCCCCCCOS(=O)(=O)O [SDS] | totally inhibited
14 | OC(CS)C(O)CS (stereo not drawn) [DTT] | totally inhibited
15 | N=C(N)N [Guanidine-HCl] | stimulatory effect
